Where “and” joins values, the source holds several entries; their conditions need not be identical. Equal entries are not always repeated. Calls of active or inactive are those of the source. No rule for the calls is given here.
Molecular target: Neutrophil cytosol factor 1 (Homo sapiens) (UniProt P14598)
Test: p47phox binding inhibitors, dose response, biochemical, NADPH oxidase regulatory subunit, fluorescence polarization (AID 1275)
Conditions: p47phox binding inhibition

Sequence of Neutrophil cytosol factor 1 (Homo sapiens) (P14598 whole entry, looked up): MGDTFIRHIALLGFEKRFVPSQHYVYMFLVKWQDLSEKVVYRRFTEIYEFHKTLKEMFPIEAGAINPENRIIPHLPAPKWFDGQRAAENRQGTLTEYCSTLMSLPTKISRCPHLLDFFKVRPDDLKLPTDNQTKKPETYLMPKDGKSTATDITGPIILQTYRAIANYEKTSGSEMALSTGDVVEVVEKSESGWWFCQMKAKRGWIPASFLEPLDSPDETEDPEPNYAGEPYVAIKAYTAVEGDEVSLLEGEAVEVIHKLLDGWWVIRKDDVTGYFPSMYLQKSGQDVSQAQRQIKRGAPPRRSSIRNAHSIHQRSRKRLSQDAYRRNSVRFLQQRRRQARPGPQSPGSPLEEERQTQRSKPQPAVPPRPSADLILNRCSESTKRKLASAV

Row | Structure (SMILES) | IC50
1 | CC1=C(C#N)c2nc(N)c(C#N)c(C)c2/C1=C\c1ccc(-c2ccccc2C(=O)O)o1 | 26.9 µM
2 | C/C(=N\Nc1ccc(S(N)(=O)=O)cc1[N+](=O)[O-])c1ccc2c(c1)OCO2 | > 50 µM (inactive)
3 | O=C(N=Nc1c(O)n(Cc2ccccc2)c2ccccc12)c1cc2ccccc2cc1O | > 50 µM (inactive)
4 | COc1nc(N/N=C/c2ccc(-c3cccc([N+](=O)[O-])c3)o2)nc(N2CCOCC2)n1 | > 50 µM (inactive)
5 | C=CCNC(=S)N1CCN(CCN=CC2=C(O)CC(c3ccco3)CC2=O)CC1 (stereo not given) | > 50 µM (inactive)
6 | CCOc1ccc(N/C=C/C(=O)c2ccccc2)c([N+](=O)[O-])c1 | > 50 µM (inactive)
7 | N#CC(=C=[N-])c1nc2ccccc2nc1-[n+]1cccc(NC(=O)c2ccccc2)c1 | > 50 µM (inactive) and 24.2 µM
8 | CCOC(=O)C(=CNc1ccc(Oc2cccnc2)nc1)C(=O)OCC | > 50 µM (inactive)
9 | Cc1ccc(/C=N/Nc2ccnc3cc(Cl)ccc23)c(C)c1 | > 50 µM (inactive)
10 | CCOc1ccc(N/C=C/C(=O)c2ccc(C)cc2)c([N+](=O)[O-])c1 | > 50 µM (inactive)
11 | O=C(N=Nc1c(O)n(C2OC(=O)c3ccccc32)c2ccccc12)c1ccco1 (stereo not given) | > 50 µM (inactive)
12 | O=[N+]([O-])c1ccc(N=Cc2c(O)ccc3ccccc23)cc1 | 4.58 µM
13 | CCOC(=O)C1=C(COc2ccc(C)cc2)NC(=O)NC1c1cc(C)ccc1C (stereo not given) | > 50 µM (inactive)
14 | C/C(N)=C(/C#N)C(=O)CSc1nnc(-c2ccc3c(c2)OCO3)o1 | > 50 µM (inactive)
15 | O=c1cnnc(N/N=C/c2c[nH]c3ccccc23)[nH]1 | > 50 µM (inactive)
16 | Clc1ccc(/C=N/Nc2nc(Cl)nc3ccccc23)cc1 | > 50 µM (inactive)
17 | COc1cc(/C=N/NC(=O)c2ccc(CN3c4cccc5cccc(c45)S3(=O)=O)cc2)cc(OC)c1O | > 50 µM (inactive)
18 | COc1ccc(-c2cnnc(N/N=C/c3ccc(-c4ccc([N+](=O)[O-])cc4)o3)n2)cc1 | > 50 µM (inactive)
19 | Cc1ccc(C(NC(=O)N2CCOCC2)=C(Cl)Cl)cc1F | > 50 µM (inactive)
20 | N#CC1=C(N)OC2=C(CN(Cc3ccccc3)C/C2=C\c2cccnc2)C1c1cccnc1 (stereo not given) | 3.5 µM
21 | CCOC(=O)C1=C(c2ccccc2)NC(N)=NC1c1ccc(OCc2ccc(C(=O)OC)cc2)cc1 (stereo not given) | 6.96 µM
22 | CN(C)CC(C)(C)CN=Cc1c(O)[nH]c2ccccc12 | > 50 µM (inactive)
23 | CC(C)N1CC2=C(OC(N)=C(C#N)C2c2cccnc2)/C(=C/c2cccnc2)C1 (stereo not given) | inactive
24 | Cc1ccc(C(=O)C2=C(O)C(=O)N(Cc3ccccc3)C2c2cccnc2)o1 (stereo not given) | > 50 µM (inactive)
25 | CCOc1ccc(C2CC(c3c(O)n(C)c(=O)n(C)c3=O)=NN2)cc1 (stereo not given) | > 50 µM (inactive)

Row | Structure (SMILES) | IC50
26 | CCOC(=O)C1=C(O)c2ccccc2C(=O)/C1=C\c1ccc(CC)cc1 | > 50 µM (inactive)
27 | Cc1cccc(N=Nc2c(C)c(C#N)c(O)[nH]c2=O)c1 | > 50 µM (inactive)
28 | CCOC(=O)/C(C)=C1\NC(C)(C)Cc2ccccc21 | > 50 µM (inactive)
29 | Cn1c(O)c(/C=C2\N=c3ccccc3=C2CCNC(=S)NC2CC2)c(=O)n(C)c1=O | 14.1 µM
30 | C[c-]1[c-](C)[c-](C)[c-](C)[c-]1C.[Fe].c1cc2nccc(N3CCCC3)[c-]2c1 (stereo not given) | > 50 µM (inactive)
31 | Cc1cccc(NC(=O)Cn2c(O)c(N=NC(=O)c3ccccc3O)c3ccccc32)c1 | > 50 µM (inactive)
32 | CC1CCCCN1C(=O)C12CCC(C)(/C(=N/O)C1)C2(C)C (stereo not given) | > 50 µM (inactive)
33 | COC(=O)c1cc(C(=O)OC)cc(N2C(=O)CC(NNC(=O)c3ccc(C)cc3)C2=O)c1 (stereo not given) | > 50 µM (inactive)
34 | Cc1cc2c(C)nc(N/N=C/c3ccc([N+](=O)[O-])cc3)nc2o1 | > 50 µM (inactive)
35 | Cc1nc2ccccc2n2c(O)c(CC(=O)O)cc12 | inactive
36 | Oc1[nH]c(=S)sc1/C=C1\C(c2ccccc2)=Nc2ccccc21 | inactive
37 | O=c1[nH]c(O)c(/C=C2/C=CC(c3cc(Cl)ccc3Cl)=N2)c(=O)[nH]1 | > 50 µM (inactive)
38 | N=C1CCC(=N)c2c1c(O)c1ccccc1c2O | 0.68 µM
39 | O=C1OCC=C1NNC(=O)c1cccnc1 | > 50 µM (inactive)
40 | CCOC(=O)C1=C(O)CSC1=Nc1ccc(Cl)cc1 | > 50 µM (inactive)
41 | CCN=C(Nc1ccc2c(c1)OCO2)SC1CC(=O)N(c2ccccc2F)C1=O (stereo not given) | > 50 µM (inactive)
42 | O=[N+]([O-])c1ccc(N/N=C\c2cccn2-c2ccccc2)nc1 | > 50 µM (inactive)
43 | N#Cc1ccc(N/N=C/c2cn(-c3ccccc3)nc2-c2ccccc2)c([N+](=O)[O-])c1 | > 50 µM (inactive)
44 | CC(C)Cc1ccc(/C(=N/O)C(=O)O)s1 | > 50 µM (inactive)
45 | CC1=NN(c2ccccc2)C(=O)/C1=C/C=C/c1ccc(N(C)C)cc1 | > 50 µM (inactive)
46 | COc1ccc(-c2cn[nH]c2-c2ccc(OCc3ccc([N+](=O)[O-])cc3)cc2O)cc1 | > 50 µM (inactive)
47 | Cc1ccc(-n2c(O)c(/C=N/Nc3ccccc3)c(=O)[nH]c2=O)cc1C | > 50 µM (inactive)
48 | Cc1ccc(NC(=O)Cn2c(O)c(N=NC(=O)c3cc4ccccc4cc3O)c3ccccc32)cc1 | > 50 µM (inactive)
49 | CCOc1ccc(-n2c(SCC(=O)Nc3ccc(Br)cc3)nc3n[nH]c(C)c3c2=N)cc1 | > 50 µM (inactive)
50 | CCOc1ccc2c(c1)C(c1cccs1)=NNC(c1cccnc1)=N2 | > 50 µM (inactive)

Row | Structure (SMILES) | IC50
51 | O=c1oc2ccccc2c(O)c1/C=C1\C=Nc2ccccc21 | > 50 µM (inactive)
52 | O=c1[nH]c(=S)[nH]c(O)c1N=Nc1ccc(-c2ccccc2)cc1[N+](=O)[O-] | 8.05 µM
53 | Cc1ccc(/C(CSc2nccn2-c2ncc(C(F)(F)F)cc2Cl)=N\O)cc1 | > 50 µM (inactive)
54 | CCN(CC)c1ccc(/C=N/c2sc3c(c2C#N)C2CCN3CC2)c(O)c1 | 6.96 µM
55 | CCOC(=O)C1=C(c2ccccc2)NC(N)=NC1c1ccc(OCc2ccc(Cl)cc2)c(OC)c1 (stereo not given) | 4.14 µM
56 | COc1ccc(N2C(=O)CNC2=S)cc1 | > 50 µM (inactive)
57 | O=C(Cn1c(O)c(/C=C2\C=Nc3ccc(Br)cc32)sc1=O)N1CCCC1 | > 50 µM (inactive)
58 | COc1ccc(C2C(C(=O)c3ccccc3)=C(C)Nc3nc4ccccc4n32)cc1OC (stereo not given) | > 50 µM (inactive)
59 | CCc1cc2c(=O)nc3n(c2s1)Cc1ccccc1/C3=C(/O)c1ccccc1Cl | > 50 µM (inactive)
60 | CN(C)c1ccnc2c[cH-]cc12.[Fe].c1ccc(-[c-]2[c-](-c3ccccc3)[c-](-c3ccccc3)[c-](-c3ccccc3)[c-]2-c2ccccc2)cc1 (stereo not given) | 13.9 µM and 2.73 µM
61 | CC(=O)N1C(=O)C2(C(C#N)=C(N)Oc3n[nH]c(-c4ccccn4)c32)c2ccccc21 (stereo not given) | > 50 µM (inactive)
62 | N#CC(=C=[N-])c1nc2ccccc2nc1-[n+]1cccc(NC(=O)c2cccs2)c1 | 14.8 µM
63 | COc1ccc(N=C2O/C(=C/c3sc(=S)n(CC4CCCO4)c3O)N=C2C#N)cc1 (stereo not given) | 16 µM
64 | Cc1ccccc1NC(=O)Cn1c(O)c(N=NC(=O)c2ccccc2O)c2ccccc21 | > 50 µM (inactive)
65 | C(=N\Nc1nc(Nc2ccccc2)nc(N2CCCCC2)n1)/c1ccco1 | > 50 µM (inactive)
66 | CSc1sc(C)cc1C1C(C#N)=C(N)N(c2cccnc2)C2=C1C(=O)CCC2 (stereo not given) | > 50 µM (inactive)
67 | COc1ccc(C2C(C#N)=C(N)Oc3cc4c(cc32)OCO4)cc1 (stereo not given) | > 50 µM (inactive)
68 | O=C(N=Nc1c(O)[nH]c2ccc(Cl)cc12)c1cc(-c2cccs2)nc2ccccc12 | > 50 µM (inactive)
69 | O=C(N=Nc1c(O)[nH]c2ccc(Br)cc12)c1cc(-c2cccs2)nc2ccccc12 | > 50 µM (inactive)
70 | COCc1cc(C)nc(N/N=C/c2ccc(-c3ccc(Cl)cc3[N+](=O)[O-])o2)c1C#N | > 50 µM (inactive)
71 | CCOC(=O)c1ccc(N2C(=O)CC(Nc3ccc(O)cc3)C2=O)cc1 (stereo not given) | 23.7 µM
72 | O=C1CCCC(O)=C1N=Nc1ccc(C(=O)O)cc1 | > 50 µM (inactive)
73 | O=C1Nc2ccccc2/C1=N/N=C/c1ccc(-c2ccc([N+](=O)[O-])cc2)o1 | > 50 µM (inactive)
74 | CC1(C)CC(=O)C2=C(C1)Nc1cc3c(cc1C2c1ccc2c(c1)OCO2)OCO3 (stereo not given) | > 50 µM (inactive)
75 | Nc1cc(Cl)ccc1N1C(=O)CCC1=O | > 50 µM (inactive)

— PubChem BioAssay AID1275 (Emory University Molecular Libraries Screening Center, 2008)
